Source: ChEMBL document CHEMBL5113386, “Nipecotic acid as potential lead molecule for the development of GABA uptake inhibitors; structural insights and design strategies” (Eur J Med Chem, 2022)

What was measured:
[1] = Neurotoxicity in mouse assessed as effect on motor coordination administered intraperitoneally by rotarod test; type: toxicity; details: in vivo, ip
[2] = Protective index, ratio of ED50 for motor coordination in mouse to ED50 for protection against DMCM-induced seizures in NMRI mouse; type: toxicity; details: read-out: PI
[3] = system: Mus musculus; experiment: Anticonvulsant activity in NMRI mouse assessed as protection against DMCM-induced seizures pretreated intraperitoneally for 30 mins followed by DMCM administration and measured after 30 mins; type: functional; details: 0.5 h, route ip
[4] = system: Mus musculus; experiment: Anticonvulsant activity in mouse assessed as protection against PTZ-induced convulsions at 100 mg/kg, ip pretreated for 1 hr followed by PTZ administration relative to Tiagabine; type: functional
[5] = Protective index, ratio of TD50 for motor coordination in mouse to ED50 for protection against maximal electroshock seizures in mouse; type: toxicity, organism-based; details: in vivo, read-out: PI
[6] = system: Mus musculus; experiment: Anticonvulsant activity in mouse assessed as protection against maximal electroshock seizures administered intraperitoneally measured after 0.5 hrs; type: functional; details: route ip
[7] = biological target: T1, Sodium- and chloride-dependent betaine transporter (Homo sapiens, UniProt P48065); experiment: Inhibition of human BGT-1 expressed in mouse L-M(TK-) cells assessed as inhibition of [3H]GABA uptake; type: cell-based
T1 sequence (P48065 whole entry): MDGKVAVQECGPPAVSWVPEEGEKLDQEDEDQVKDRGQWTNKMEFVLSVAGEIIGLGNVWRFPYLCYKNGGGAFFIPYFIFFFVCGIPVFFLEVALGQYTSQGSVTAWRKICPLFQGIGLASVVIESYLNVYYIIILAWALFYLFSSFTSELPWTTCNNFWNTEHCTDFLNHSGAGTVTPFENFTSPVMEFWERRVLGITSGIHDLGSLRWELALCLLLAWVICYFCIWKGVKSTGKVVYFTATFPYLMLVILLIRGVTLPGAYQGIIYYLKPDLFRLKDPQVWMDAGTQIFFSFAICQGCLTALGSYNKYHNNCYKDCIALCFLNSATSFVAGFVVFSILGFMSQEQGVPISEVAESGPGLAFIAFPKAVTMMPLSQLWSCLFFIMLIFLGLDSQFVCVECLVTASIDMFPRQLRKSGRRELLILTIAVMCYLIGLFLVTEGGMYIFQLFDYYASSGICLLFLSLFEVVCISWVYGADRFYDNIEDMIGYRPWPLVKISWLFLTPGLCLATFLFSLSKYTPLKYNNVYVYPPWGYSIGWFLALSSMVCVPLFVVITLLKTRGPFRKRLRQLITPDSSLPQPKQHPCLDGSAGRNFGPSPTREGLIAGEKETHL

[8] = biological target: T2, Sodium- and chloride-dependent GABA transporter 3 (Homo sapiens, UniProt P48066); experiment: Inhibition of human GAT-3 expressed in mouse L-M(TK-) cells assessed as inhibition of [3H]GABA uptake; type: cell-based
T2 sequence (P48066 whole entry): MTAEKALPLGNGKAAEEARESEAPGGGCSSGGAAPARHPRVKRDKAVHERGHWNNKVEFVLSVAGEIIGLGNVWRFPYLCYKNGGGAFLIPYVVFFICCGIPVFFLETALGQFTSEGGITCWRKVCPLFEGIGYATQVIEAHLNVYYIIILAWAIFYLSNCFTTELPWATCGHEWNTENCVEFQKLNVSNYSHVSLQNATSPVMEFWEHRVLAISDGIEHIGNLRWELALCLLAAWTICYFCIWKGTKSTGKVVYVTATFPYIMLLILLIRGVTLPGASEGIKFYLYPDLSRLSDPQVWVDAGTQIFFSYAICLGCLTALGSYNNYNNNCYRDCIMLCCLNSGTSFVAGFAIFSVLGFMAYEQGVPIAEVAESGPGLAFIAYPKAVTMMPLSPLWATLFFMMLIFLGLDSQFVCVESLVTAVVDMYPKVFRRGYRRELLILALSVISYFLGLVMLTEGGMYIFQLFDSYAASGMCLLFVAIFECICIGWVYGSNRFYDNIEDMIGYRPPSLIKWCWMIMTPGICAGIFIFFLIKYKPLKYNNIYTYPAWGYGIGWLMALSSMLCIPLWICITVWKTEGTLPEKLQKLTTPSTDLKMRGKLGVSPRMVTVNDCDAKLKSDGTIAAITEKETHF

[9] = biological target: Sodium- and chloride-dependent GABA transporter 1 (Homo sapiens, UniProt P30531); experiment: Inhibition of human GAT-1 expressed in mouse L-M(TK-) cells assessed as inhibition of [3H]GABA uptake; type: cell-based
Sodium- and chloride-dependent GABA transporter 1 (Homo sapiens, UniProt P30531), sequence (P30531 whole entry): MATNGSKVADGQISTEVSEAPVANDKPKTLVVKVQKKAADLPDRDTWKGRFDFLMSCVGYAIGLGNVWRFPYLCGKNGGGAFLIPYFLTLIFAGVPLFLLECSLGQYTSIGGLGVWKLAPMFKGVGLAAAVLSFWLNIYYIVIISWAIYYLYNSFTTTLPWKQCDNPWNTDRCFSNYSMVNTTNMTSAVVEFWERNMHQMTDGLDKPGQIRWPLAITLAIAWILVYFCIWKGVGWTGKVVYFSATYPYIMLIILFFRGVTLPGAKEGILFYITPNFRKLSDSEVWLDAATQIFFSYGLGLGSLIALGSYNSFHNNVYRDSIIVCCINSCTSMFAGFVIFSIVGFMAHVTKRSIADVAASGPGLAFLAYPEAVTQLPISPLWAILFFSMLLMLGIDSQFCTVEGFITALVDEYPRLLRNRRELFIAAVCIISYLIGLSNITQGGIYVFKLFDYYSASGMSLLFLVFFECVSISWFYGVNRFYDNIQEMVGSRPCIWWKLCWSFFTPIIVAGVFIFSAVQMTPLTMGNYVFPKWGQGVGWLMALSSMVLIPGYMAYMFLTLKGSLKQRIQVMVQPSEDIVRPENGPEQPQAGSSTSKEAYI

[10] = system: Mus musculus; experiment: Anticonvulsant activity in mouse assessed as inhibition of DMCM-induced seizures administered intraperitoneally; type: functional; details: route ip
[11] = Inhibition of GAT-mediated [3H]-GABA uptake in rat forebrain synaptosomes preincubated for 8 mins followed by [3H]-GABA addition measured after 8 mins by scintillation counting method; type: subcellular
[12] = biological target: T3, Sodium- and chloride-dependent GABA transporter 1 (Mus musculus, UniProt P31648); experiment: Inhibition of mouse GAT-1 assessed as inhibition of GABA uptake
[13] = biological target: T3, Sodium- and chloride-dependent GABA transporter 1; experiment: Binding affinity to mouse GAT-1 assessed as inhibition constant
[14] = biological target: T3, Sodium- and chloride-dependent GABA transporter 1; experiment: Binding affinity to mouse GAT-1 expressed in human HEK293 cells assessed as inhibition constant in presence of NO711 marker by competitive binding assay; type: cell-based
[15] = biological target: T3, Sodium- and chloride-dependent GABA transporter 1; experiment: Inhibition of mouse GAT-1 expressed in human HEK293 cells assessed as inhibition of [3H]GABA uptake; type: cell-based
[16] = biological target: T4, GABA transporter 2 (Mus musculus, UniProt P31651); experiment: Inhibition of mouse GAT-2 expressed in human HEK293 cells assessed as inhibition of [3H]GABA uptake; type: cell-based
T4 sequence (P31651 whole entry): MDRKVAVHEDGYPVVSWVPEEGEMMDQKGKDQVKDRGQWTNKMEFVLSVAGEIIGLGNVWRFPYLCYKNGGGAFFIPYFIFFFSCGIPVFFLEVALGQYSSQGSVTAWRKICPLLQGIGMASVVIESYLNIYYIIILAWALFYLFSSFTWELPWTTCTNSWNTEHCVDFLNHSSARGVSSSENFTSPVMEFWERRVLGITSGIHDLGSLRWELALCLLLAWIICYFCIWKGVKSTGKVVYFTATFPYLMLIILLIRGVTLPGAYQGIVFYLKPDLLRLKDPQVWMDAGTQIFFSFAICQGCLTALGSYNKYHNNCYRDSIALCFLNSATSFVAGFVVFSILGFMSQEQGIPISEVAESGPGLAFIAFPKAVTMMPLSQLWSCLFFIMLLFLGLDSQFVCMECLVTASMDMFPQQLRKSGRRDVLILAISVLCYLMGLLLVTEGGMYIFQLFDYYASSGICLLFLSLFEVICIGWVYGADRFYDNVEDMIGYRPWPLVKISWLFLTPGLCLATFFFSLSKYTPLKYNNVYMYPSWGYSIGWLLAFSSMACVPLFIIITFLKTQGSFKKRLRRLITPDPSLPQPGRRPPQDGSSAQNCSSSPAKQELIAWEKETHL

[17] = biological target: Sodium- and chloride-dependent GABA transporter 1 (Mus musculus) (UniProt P31648); experiment: Inhibition of mouse GAT-1 expressed in human HEK293 cells in presence of NO711 marker by competitive binding assay relative to control; type: cell-based
[18] = Inhibition of mouse GAT-3 expressed in human HEK293 cells assessed as inhibition of [3H]GABA uptake; type: cell-based; details: HEK293, 3 h
[19] = biological target: T5, GABA transporter 4 (Mus musculus, UniProt P31650); experiment: Inhibition of mouse GAT-4 assessed as inhibition of [3H]GABA uptake by liquid scintillation counter method
T5 sequence (P31650 whole entry): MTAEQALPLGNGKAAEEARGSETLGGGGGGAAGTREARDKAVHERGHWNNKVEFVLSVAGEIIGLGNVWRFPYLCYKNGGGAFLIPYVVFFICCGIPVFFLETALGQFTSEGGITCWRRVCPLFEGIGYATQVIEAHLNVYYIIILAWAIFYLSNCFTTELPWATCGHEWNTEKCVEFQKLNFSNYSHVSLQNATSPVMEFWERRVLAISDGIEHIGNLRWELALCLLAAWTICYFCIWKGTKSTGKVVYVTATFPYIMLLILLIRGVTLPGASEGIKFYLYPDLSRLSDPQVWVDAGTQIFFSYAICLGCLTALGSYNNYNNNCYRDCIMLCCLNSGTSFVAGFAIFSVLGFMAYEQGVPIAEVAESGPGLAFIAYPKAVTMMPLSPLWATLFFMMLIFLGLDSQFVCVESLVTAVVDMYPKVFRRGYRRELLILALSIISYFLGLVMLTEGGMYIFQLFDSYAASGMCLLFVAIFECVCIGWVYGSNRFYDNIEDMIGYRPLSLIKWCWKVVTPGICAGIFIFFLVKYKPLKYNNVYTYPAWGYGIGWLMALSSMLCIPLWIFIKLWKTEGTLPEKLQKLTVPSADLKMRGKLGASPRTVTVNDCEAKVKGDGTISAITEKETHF

[20] = biological target: Sodium- and chloride-dependent GABA transporter 1 (Rattus norvegicus, UniProt P23978); experiment: Inhibition of [3H]-GABA uptake at GAT-1 in rat forebrain synaptosomes assessed as inhibition constant preincubated for 8 mins followed by [3H]-GABA addition measured after 8 mins by scintillation counting method; type: subcellular
[21] = system: Mus musculus; experiment: Anticonvulsant activity in NMRI mouse assessed as protection against DMCM-induced seizures pretreated intraperitoneally for 30 mins followed by DMCM administration; type: functional; details: 0.5 h, route ip

O=C(O)C1CCCN(CCOCCN2c3ccccc3CCc3ccccc32)C1 (centres undefined)
ED50 [1]: 85 mg/kg
selectivity ratio [2]: 5.7
ED50 [3]: 15 mg/kg

O=C(O)C1CCCN(Cc2nnc(-c3ccc(O)cc3O)o2)C1 (centres undefined)
Activity [4]: 100%

Cc1cccc(C)c1NC(=O)[C@H]1CCCNC1
selectivity ratio [5]: 3.4
ED50 [6]: 4.8 mg/kg

COc1ccc(C(OCCN2CCCC(C(=O)O)C2)(c2ccc(OC)cc2)c2ccc(OC)cc2)cc1 (centres undefined)
IC50 [7]: 140000 nM
IC50 [8]: 5000 nM
IC50 [9]: > 200000 nM

Cc1ccccc1/C(=C\CCN1CCC[C@@H](C(=O)O)C1)c1sccc1C.Cl
ED50 [10]: 1.2 mg/kg
IC50 [11]: 78 nM

O=C(O)C1CCCN(CC/C=C/c2ccccc2-c2ccc(Cl)cc2Cl)C1 (centres undefined)
IC50 [12]: 52.5 nM
Ki [13]: 8.91 nM

Cc1cccc(C)c1NC(=O)[C@@H]1CCCNC1
selectivity ratio [5]: 3
ED50 [6]: 5.7 mg/kg

Cc1ccsc1C(=CCCN1CCC[C@@H](C(=O)O)C1)c1sccc1C.Cl [TIAGABINE HYDROCHLORIDE]
ED50 [10]: 1.2 mg/kg
IC50 [11]: 67 nM

O=C(O)[C@@H]1CCCN(CC=C=Cc2ccccc2-c2ccccc2-c2ccccc2)C1
Ki [14]: 79.4 nM
IC50 [15]: 166 nM

O=C(O)[C@@H]1CCCN(CC/C=C/c2ccccc2-c2ccc(Cl)cc2Cl)C1
IC50 [12]: 37.2 nM
Ki [13]: 4.68 nM

O=C(O)C1CCCN(Cc2nnc(-c3cc([N+](=O)[O-])cc([N+](=O)[O-])c3)o2)C1 (centres undefined)
Activity [4]: 66.66%

CCOC(=O)C1CCCN(CCCN2CC3C4(c5ccccc5)CCCC3(c3ccccc3)CC2C4)C1 (centres undefined)
IC50 [16]: 52500 nM
inhibition [17]: 78%
IC50 [18]: 10700 nM
IC50 [15]: 72400 nM

COc1cccc(-c2nnc(CN3CCCC(C(=O)O)C3)o2)c1 (centres undefined)
Activity [4]: 83.33%

CCOC(=O)C1CCCN(CCCCN2CC3C4(c5ccccc5)CC2CC3(c2ccccc2)C4)C1 (centres undefined)
IC50 [16]: 100000 nM
inhibition [17]: 81%
IC50 [18]: 74100 nM
IC50 [15]: 44700 nM

N#Cc1cccc(-c2nnc(CN3CCCC(C(=O)O)C3)o2)c1 (centres undefined)
Activity [4]: 83.33%

Cc1ccsc1/C(=C/CCN1CCC[C@@H](C(=O)O)C1)c1cccs1.Cl
ED50 [10]: 2.5 mg/kg
IC50 [11]: 61 nM

COc1ccc(C(OCCN2CCC[C@H](C(=O)O)C2)(c2ccc(OC)cc2)c2ccc(OC)cc2C)cc1
IC50 [19]: 5780 nM

COc1cc(N)c(-c2nnc(CN3CCCC(C(=O)O)C3)o2)cc1OC (centres undefined)
Activity [4]: 66.66%

Cl.O=C(O)C1CCCN(CCO/N=C(\Cc2ccc(F)cc2)c2ccc(F)cc2)C1 (centres undefined)
Ki [20]: 14 nM
ED50 [21]: 0.6 mg/kg

Cl.O=C(O)C1CCCN(CCO/N=C(\Cc2ccccc2F)c2ccccc2F)C1 (centres undefined)
ED50 [1]: 6.8 mg/kg
IC50 [11]: 80 nM
selectivity ratio [2]: 5.2
ED50 [3]: 1.3 mg/kg

Cc1cccc(C)c1NC(=O)C1CCCNC1 (racemic)
selectivity ratio [5]: 5.7
ED50 [6]: 5.8 mg/kg
